{"source": "the supplement of paper PMC10307832", "assay_in_all_cases": "relative viability (nuclei count vs DMSO), 5 days (fraction); higher = more cells survive", "key": {"[1]": {"compound": "CO[C@@H]1[C@H](N(C)C(=O)c2ccccc2)C[C@H]2O[C@]1(C)n1c3ccccc3c3c4c(c5c6ccccc6n2c5c31)C(=O)NC4 [Midostaurin] + CC(C)C[C@H](NC(=O)[C@H](Cc1ccccc1)NC(=O)c1cnccn1)B(O)O [Bortezomib] (partner 0.002 µM)", "summary_of_the_method": "(§1)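 Cells from lung cancer lines were seeded into 1536-well plates and, one day later, dosed by pin tool. Treatments were either a single drug or a fixed dose of an anchor drug with five library-drug doses (not always all listed) in √10 steps. After 5 days, nuclei were stained in a one-step fixation (final 0.05% Triton X-100, 1% formaldehyde, 1 ug/ml Hoechst) and counted on 4× images, and relative viability is the treated-to-vehicle nuclei ratio, as the median of duplicate plates.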"}, "[2]": {"compound": "CO[C@@H]1[C@H](N(C)C(=O)c2ccccc2)C[C@H]2O[C@]1(C)n1c3ccccc3c3c4c(c5c6ccccc6n2c5c31)C(=O)NC4 [Midostaurin] + COc1cccc2cc(-c3nc([C@H]4CC[C@H](C(=O)O)CC4)n4ncnc(N)c34)[nH]c12 [OSI-027] (partner 0.5 µM)", "summary_of_the_method": "as §1"}, "[3]": {"compound": "CO[C@@H]1[C@H](N(C)C(=O)c2ccccc2)C[C@H]2O[C@]1(C)n1c3ccccc3c3c4c(c5c6ccccc6n2c5c31)C(=O)NC4 [Midostaurin] + Nc1nc2[nH]cc(CCc3ccc(C(=O)N[C@@H](CCC(=O)O)C(=O)O)cc3)c2c(=O)[nH]1 [Pemetrexed] (partner 0.2 µM)", "summary_of_the_method": "as §1"}, "[4]": {"compound": "COc1cc(-c2nn([C@H]3CC[C@H](N4CCN(C(C)=O)CC4)CC3)c3ncnc(N)c23)ccc1NC(=O)c1cc2ccccc2n1C + CC1(C)CCC(c2ccc(Cl)cc2)=C(CN2CCN(c3ccc(C(=O)NS(=O)(=O)c4ccc(N[C@H](CCN5CCOCC5)CSc5ccccc5)c(S(=O)(=O)C(F)(F)F)c4)cc3)CC2)C1 [Navitoclax] (partner 0.5 µM)", "summary_of_the_method": "as §1"}, "[5]": {"compound": "COc1cc(-c2nn([C@H]3CC[C@H](N4CCN(C(C)=O)CC4)CC3)c3ncnc(N)c23)ccc1NC(=O)c1cc2ccccc2n1C + Cc1cc(Nc2cc(N3CCN(C)CC3)nc(Sc3ccc(NC(=O)C4CC4)cc3)n2)n[nH]1 [Tozasertib] (partner 0.1 µM)", "summary_of_the_method": "as §1"}}, "data": [{"cell line": "UMC-11", "values": [{"measurement": "relative viability", "setting": "[1]; first compound 0.01 µM", "value": 0.734}, {"measurement": "relative viability", "setting": "[1]; first compound 0.03162 µM", "value": 0.591}, {"measurement": "relative viability", "setting": "[1]; first compound 0.1 µM", "value": 0.508}, {"measurement": "relative viability", "setting": "[1]; first compound 0.3162 µM", "value": 0.34}, {"measurement": "relative viability", "setting": "[2]; first compound 0.01 µM", "value": 0.473}, {"measurement": "relative viability", "setting": "[2]; first compound 0.03162 µM", "value": 0.463}, {"measurement": "relative viability", "setting": "[2]; first compound 0.1 µM", "value": 0.536}, {"measurement": "relative viability", "setting": "[2]; first compound 0.3162 µM", "value": 0.293}, {"measurement": "relative viability", "setting": "[3]; first compound 0.01 µM", "value": 0.808}, {"measurement": "relative viability", "setting": "[3]; first compound 0.03162 µM", "value": 0.753}, {"measurement": "relative viability", "setting": "[3]; first compound 0.1 µM", "value": 0.65}, {"measurement": "relative viability", "setting": "[3]; first compound 0.3162 µM", "value": 0.528}, {"measurement": "relative viability", "setting": "[4]; first compound 0.0128 µM", "value": 0.315}, {"measurement": "relative viability", "setting": "[4]; first compound 0.04048 µM", "value": 0.323}, {"measurement": "relative viability", "setting": "[4]; first compound 0.128 µM", "value": 0.28}, {"measurement": "relative viability", "setting": "[4]; first compound 1.28 µM", "value": 0.297}, {"measurement": "relative viability", "setting": "[5]; first compound 0.0128 µM", "value": 0.225}, {"measurement": "relative viability", "setting": "[5]; first compound 0.04048 µM", "value": 0.19}, {"measurement": "relative viability", "setting": "[5]; first compound 0.128 µM", "value": 0.197}, {"measurement": "relative viability", "setting": "[5]; first compound 1.28 µM", "value": 0.193}]}]}
